pEC50: −log10 of the molar value.
Tested on: PBMCs infected with VSV-G pseudotyped HIV virus (VSV-G/pNLG1-P2A-ΔEnv)
Experiment: cells
Format: cell-based, human
Details: Homo sapiens, PBMC, read-out: TACK EC50

Structure (SMILES) | pEC50
Cc1cc[nH]c1C(=O)NCc1cc2c(cc1F)[C@@](C#CC1CC1)(C(F)(F)F)NC(=O)N2 [Example 86, (S)-N-((4-(cyclopropylethynyl)-6-fluoro-2-oxo-4-(trifluoromethyl)-1,2,3,4-tetrahydroquinazolin-7-yl)methyl)-3-methyl-1H-pyrrole-2-carboxamide] | 7.80
N#Cc1c[nH]c(C(=O)NCc2cc3c(cc2F)[C@@](C#CC2CC2)(C(F)(F)F)NC(=O)N3)c1 [Example 88, (S)-4-cyano-N-((4-(cyclopropylethynyl)-6-fluoro-2-oxo-4-(trifluoromethyl)-1,2,3,4-tetrahydroquinazolin-7-yl)methyl)-1H-pyrrole-2-carboxamide] | 7.60
O=C1Nc2cc(CNC(=O)c3nccs3)c(F)cc2[C@@](C#CC2CC2)(C(F)(F)F)N1 [Example 89, (S)-N-((4-(cyclopropylethynyl)-6-fluoro-2-oxo-4-(trifluoromethyl)-1,2,3,4-tetrahydroquinazolin-7-yl)methyl)thiazole-2-carboxamide] | 7.02
CC(F)(F)[C@@]1(C#CC2CC2)NC(=O)Nc2cc(Cn3cc4ccccc4n3)c(F)cc21 [Example 90, (S)-7-((2H-indazol-2-yl)methyl)-4-(cyclopropylethynyl)-4-(1,1-difluoroethyl)-6-fluoro-3,4-dihydroquinazolin-2(1H)-one] | 8.03
CC(F)(F)[C@@]1(C#CC2CC2)NC(=O)Nc2cc(Cn3ncc4ccccc43)c(F)cc21 [Example 91, (S)-7-((1H-indazol-1-yl)methyl)-4-(cyclopropylethynyl)-4-(1,1-difluoroethyl)-6-fluoro-3,4-dihydroquinazolin-2(1H)-one] | 7.56
CC(F)(F)[C@@]1(C#CC2CC2)NC(=O)Nc2cc(Cn3nnc4ccccc43)c(F)cc21 [Example 92, (S)-7-((1H-benzo[d][1,2,3]triazol-1-yl)methyl)-4-(cyclopropylethynyl)-4-(1,1-difluoroethyl)-6-fluoro-3,4-dihydroquinazolin-2(1H)-one] | 7.97
Cc1nn(Cc2cc3c(cc2F)[C@@](C#CC2CC2)(C(C)(F)F)NC(=O)N3)c2ccccc12 [Example 93, (S)-4-(cyclopropylethynyl)-4-(1,1-difluoroethyl)-6-fluoro-7-((3-methyl-1H-indazol-1-yl)methyl)-3,4-dihydroquinazolin-2(1H)-one] | 7.55
CC(F)(F)[C@@]1(C#CC2CC2)NC(=O)Nc2cc(Cn3cnc4ccccc43)c(F)cc21 [Example 94, (S)-7-((1H-benzo[d]imidazol-1-yl)methyl)-4-(cyclopropylethynyl)-4-(1,1-difluoroethyl)-6-fluoro-3,4-dihydroquinazolin-2(1H)-one] | 7.35
COc1nn(Cc2cc3c(cc2F)[C@@](C#CC2CC2)(C(C)(F)F)NC(=O)N3)cc1Cl [Example 95, (S)-7-((4-chloro-3-methoxy-1H-pyrazol-1-yl)methyl)-4-(cyclopropylethynyl)-4-(1,1-difluoroethyl)-6-fluoro-3,4-dihydroquinazolin-2(1H)-one] | 7.62
O=C1Nc2cc(CN3Cc4ccccc4C3=O)c(F)cc2[C@@](C#CC2CC2)(C(F)(F)F)N1 [Example 96, (S)-4-(cyclopropylethynyl)-6-fluoro-7-((1-oxoisoindolin-2-yl)methyl)-4-(trifluoromethyl)-3,4-dihydroquinazolin-2(1H)-one] | 7.35
COc1ccc(-c2ccn(Cc3cc4c(cc3F)[C@@](C#CC3CC3)(C(C)(F)F)NC(=O)N4)n2)cc1 [Example 97, (S)-4-(cyclopropylethynyl)-4-(1,1-difluoroethyl)-6-fluoro-7-((3-(4-methoxyphenyl)-1H-pyrazol-1-yl)methyl)-3,4-dihydroquinazolin-2(1H)-one] | 7.34
O=C1Nc2cc(Cn3ccc4c3CCNC4=O)c(F)cc2[C@@](C#CC2CC2)(C(F)(F)F)N1 [Example 98, (S)-4-(cyclopropylethynyl)-6-fluoro-7-((4-oxo-4,5,6,7-tetrahydro-1H-pyrrolo[3,2-c]pyridin-1-yl)methyl)-4-(trifluoromethyl)-3,4-dihydroquinazolin-2(1H)-one] | 7.18
COc1cn(Cc2cc3c(cc2F)[C@@](C#CC2CC2)(C(C)(F)F)NC(=O)N3)nc1N [Example 99, (S)-7-((3-amino-4-methoxy-1H-pyrazol-1-yl)methyl)-4-(cyclopropylethynyl)-4-(1,1-difluoroethyl)-6-fluoro-3,4-dihydroquinazolin-2(1H)-one] | 7.88
NC(=O)c1nccn1Cc1cc2c(cc1F)[C@@](C#CC1CC1)(C(F)(F)F)NC(=O)N2 [Example 100, (S)-1-((4-(cyclopropylethynyl)-6-fluoro-2-oxo-4-(trifluoromethyl)-1,2,3,4-tetrahydroquinazolin-7-yl)methyl)-1H-imidazole-2-carboxamide] | 7.87
Cc1ccn(Cc2cc3c(cc2F)[C@@](C#CC2CC2)(C(F)(F)F)NC(=O)N3)n1 [Example 101, (S)-4-(cyclopropylethynyl)-6-fluoro-7-((3-methyl-1H-pyrazol-1-yl)methyl)-4-(trifluoromethyl)-3,4-dihydroquinazolin-2(1H)-one] | 7.86
CC(F)(F)[C@@]1(C#CC2CC2)NC(=O)Nc2cc(Cn3ccc(C=O)n3)c(F)cc21 [Example 102, (S)-1-((4-(cyclopropylethynyl)-4-(1,1-difluoroethyl)-6-fluoro-2-oxo-1,2,3,4-tetrahydroquinazolin-7-yl)methyl)-1H-pyrazole-3-carbaldehyde] | 7.57
CC(F)(F)[C@@]1(C#CC2CC2)NC(=O)Nc2cc(Cn3cnc(N)n3)c(F)cc21 [Example 106, (S)-7-((3-amino-1H-1,2,4-triazol-1-yl)methyl)-4-(cyclopropylethynyl)-4-(1,1-difluoroethyl)-6-fluoro-3,4-dihydroquinazolin-2(1H)-one] | 7.77
Cc1nn(C)c(=O)n1Cc1cc2c(cc1F)[C@@](C#CC1CC1)(C(C)(F)F)NC(=O)N2 [Example 108, (S)-4-(cyclopropylethynyl)-4-(1,1-difluoroethyl)-7-((1,3-dimethyl-5-oxo-1,5-dihydro-4H-1,2,4-triazol-4-yl)methyl)-6-fluoro-3,4-dihydroquinazolin-2(1H)-one] | 7.74
CC(F)(F)[C@@]1(C#CC2CC2)NC(=O)Nc2cc(Cn3nc[nH]c3=O)c(F)cc21 [Example 109, (S)-4-(cyclopropylethynyl)-4-(1,1-difluoroethyl)-6-fluoro-7-((5-oxo-4,5-dihydro-1H-1,2,4-triazol-1-yl)methyl)-3,4-dihydroquinazolin-2(1H)-one] | 7.68
CN1CC(=O)N(Cc2cc3c(cc2F)[C@@](C#CC2CC2)(C(C)(F)F)NC(=O)N3)C1=O [Example 110, (S)-3-((4-(cyclopropylethynyl)-4-(1,1-difluoroethyl)-6-fluoro-2-oxo-1,2,3,4-tetrahydroquinazolin-7-yl)methyl)-1-methylimidazolidine-2,4-dione] | 7.36
CN(Cc1cc2c(cc1F)[C@@](C#CC1CC1)(C(C)(F)F)NC(=O)N2)c1cc[nH]n1 [Example 111, (S)-4-(cyclopropylethynyl)-4-(1,1-difluoroethyl)-6-fluoro-7-((methyl(1H-pyrazol-3-yl)amino)methyl)-3,4-dihydroquinazolin-2(1H)-one] | 6.99
COCc1ccn(Cc2cc3c(cc2F)[C@@](C#CC2CC2)(C(C)(F)F)N(C)C(=O)N3)n1 [Example 112, (S)-4-(cyclopropylethynyl)-4-(1,1-difluoroethyl)-6-fluoro-7-((3-(methoxymethyl)-1H-pyrazol-1-yl)methyl)-3-methyl-3,4-dihydroquinazolin-2(1H)-one] | 7.74
COc1nn(Cc2cc3c(cc2F)[C@@](C#CC2CC2)(C(C)(F)F)NC(=O)N3)cc1F [Example 115, (S)-4-(cyclopropylethynyl)-4-(1,1-difluoroethyl)-6-fluoro-7-((4-fluoro-3-methoxy-1H-pyrazol-1-yl)methyl)-3,4-dihydroquinazolin-2(1H)-one] | 7.70
Cc1nnn(Cc2cc3c(cc2F)[C@@](C#CC2CC2)(C(F)(F)F)NC(=O)N3)n1 [Example 118, (S)-4-(cyclopropylethynyl)-6-fluoro-7-((5-methyl-2H-tetrazol-2-yl)methyl)-4-(trifluoromethyl)-3,4-dihydroquinazolin-2(1H)-one] | 7.44
O=C1Nc2cc(Cc3[nH]nc4ccccc34)c(F)cc2[C@@](C#CC2CC2)(C(F)(F)F)N1 [Example 119, (S)-7-((2H-indazol-3-yl)methyl)-4-(cyclopropylethynyl)-6-fluoro-4-(trifluoromethyl)-3,4-dihydroquinazolin-2(1H)-one] | 7.24
CC(F)(F)[C@@]1(C#CC2CC2)NC(=O)Nc2cc(Cn3ccc(S(N)(=O)=O)n3)c(F)cc21 [Example 120, (S)-1-((4-(cyclopropylethynyl)-4-(1,1-difluoroethyl)-6-fluoro-2-oxo-1,2,3,4-tetrahydroquinazolin-7-yl)methyl)-1H-pyrazole-3-sulfonamide] | 7.21
CC(F)(F)[C@@]1(C#CC2CC2)NC(=O)Nc2cc(Cn3cc(C(F)F)cn3)c(F)cc21 [Example 121, (S)-4-(cyclopropylethynyl)-4-(1,1-difluoroethyl)-7-((4-(difluoromethyl)-1H-pyrazol-1-yl)methyl)-6-fluoro-3,4-dihydroquinazolin-2(1H)-one] | 7.17
Cn1cnn(Cc2cc3c(cc2F)[C@@](C#CC2CC2)(C(C)(F)F)NC(=O)N3)c1=O [Example 122, (S)-4-(cyclopropylethynyl)-4-(1,1-difluoroethyl)-6-fluoro-7-((4-methyl-5-oxo-4,5-dihydro-1H-1,2,4-triazol-1-yl)methyl)-3,4-dihydroquinazolin-2(1H)-one] | 7.13
COc1cnn(Cc2cc3c(cc2Cl)[C@@](C#CC2CC2)(C(F)(F)F)NC(=O)N3)c1 [Example 123, (S)-6-chloro-4-(cyclopropylethynyl)-7-((4-methoxy-1H-pyrazol-1-yl)methyl)-4-(trifluoromethyl)-3,4-dihydroquinazolin-2(1H)-one] | 7.10
CN(C)Cc1ccn(Cc2cc3c(cc2F)[C@@](C#CC2CC2)(C(C)(F)F)NC(=O)N3)n1 [Example 126, (S)-4-(cyclopropylethynyl)-4-(1,1-difluoroethyl)-7-((3-((dimethylamino)methyl)-1H-pyrazol-1-yl)methyl)-6-fluoro-3,4-dihydroquinazolin-2(1H)-one] | 6.99
